Measurements published in patent publication US8895746B2 (University of Central Florida Research Foundation, Inc., priority 2009, dated 2014).
Values joined by “and” are separate entries in the source; they are usually repeats but may differ in a detail not shown here. Equal values may be shown once.

Assays:
Stat1:Stat1 complex = target: T1, Stat1:Stat1 complex (Mus musculus, UniProt P42225); test: EMSA selectivity, nuclear extracts of EGF-stimulated NIH3T3/hEGFR, hSIE probe; format: biochemical
T1 construct: endogenous in cells; host or cells: EGF-stimulated NIH3T3/hEGFR mouse fibroblasts (nuclear extract)
T1 sequence (P42225 2-749 limits assumed): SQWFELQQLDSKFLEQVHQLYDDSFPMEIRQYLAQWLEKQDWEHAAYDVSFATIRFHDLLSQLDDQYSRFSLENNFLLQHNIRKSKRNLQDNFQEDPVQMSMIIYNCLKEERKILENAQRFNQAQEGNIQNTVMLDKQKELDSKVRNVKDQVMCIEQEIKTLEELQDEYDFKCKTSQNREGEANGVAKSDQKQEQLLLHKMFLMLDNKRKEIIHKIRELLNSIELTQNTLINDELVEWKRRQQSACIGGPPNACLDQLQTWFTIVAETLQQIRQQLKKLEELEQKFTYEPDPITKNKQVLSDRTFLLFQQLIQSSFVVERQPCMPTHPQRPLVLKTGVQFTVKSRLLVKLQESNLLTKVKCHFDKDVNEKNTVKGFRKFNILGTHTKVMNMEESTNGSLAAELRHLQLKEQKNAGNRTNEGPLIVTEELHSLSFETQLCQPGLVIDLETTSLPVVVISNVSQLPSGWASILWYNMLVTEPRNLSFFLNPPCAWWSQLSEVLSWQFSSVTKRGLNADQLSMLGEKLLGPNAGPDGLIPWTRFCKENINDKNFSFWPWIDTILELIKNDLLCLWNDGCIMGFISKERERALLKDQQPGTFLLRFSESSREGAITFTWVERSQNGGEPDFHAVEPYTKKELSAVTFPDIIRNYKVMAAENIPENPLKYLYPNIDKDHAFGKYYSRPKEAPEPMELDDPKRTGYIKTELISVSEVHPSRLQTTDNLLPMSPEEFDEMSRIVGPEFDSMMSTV
Procedure: (§1) Nuclear extract preparations and electrophoretic mobility shift assay (EMSA) were carried out as previously described (28,33). […] Except where indicated, nuclear extracts were pre-incubated with compound for 30 min at room temperature prior to incubation with the radiolabeled probe for 30 min at 30° C. before subjecting to EMSA analysis.

Stat1:Stat3 complex = target: T2, Stat1:Stat3 complex (Mus musculus, UniProt P42227); test: as above; format: biochemical
T2 construct: endogenous in cells; host or cells: EGF-stimulated NIH3T3/hEGFR mouse fibroblasts (nuclear extract)
Procedure: as §1

Stat3:Stat3 complex = target: T3, Stat3:Stat3 complex (Mus musculus, UniProt P42227); test: as above; format: biochemical
T3 construct: endogenous in cells; host or cells: EGF-stimulated NIH3T3/hEGFR mouse fibroblasts (nuclear extract)
Procedure: as §1

[1] = tested on: NIH3T3/v-Src, MDA-MB-231 and Panc-1 cells; test: Viable cell numbers and growth (CyQuant, trypan blue exclusion), cells with aberrant Stat3; format: cell-based, mouse, human
NIH3T3/v-Ras = test: Soft-agar colony formation assay; format: cell-based, mouse; conditions: concentrations that inhibit Stat3
Procedure: Colony formation assays were carried out in 6-well dishes, as described previously (16,37). Briefly, each well contained 1.5 ml of 1% agarose in Dulbeco's modified Eagle's medium as the bottom layer and 1.5 ml of 0.5% agarose in Dulbeco's modified Eagle's medium containing 4000 or 6000 NIH3T3/v-Src or NIH3T3/v-Ras fibroblasts, respectively, as the top layer. Treatment with S3I201.1066 was initiated 1 day after seeding cells by adding 80 μl of medium with or without S3I20.1.1066, and repeating every 3 days, until large colonies were evident. Colonies were quantified by staining with 20 μl of 1 mg/ml crystal violet, incubating at 37° C. overnight, and counting the next day under phase contrast microscope.

Stat3 = Stat3 (Mus musculus, UniProt P42227); test: Fluorescence Polarization assay, Stat3 binding to 5-carboxyfluorescein-GpYLPQTV-NH2 probe; set-up: Coding regions for the murine Stat3 protein; made in house; host or cells: E. coli BL21(DE3); species or system murine; conditions: IC50, disruption of Stat3 binding to pTyr peptide probe, 150 nM Stat3, 10 nM probe
Procedure: Coding regions for the murine Stat3 protein and Stat3 SH2 domain were amplified by PCR and cloned into vectors pET-44 Ek/LIC (Novagen) and pET SUMO (Invitrogen), respectively.
Fluorescence Polarization (FP) Assay was conducted as previously reported (23), with some modification using the phospho-peptide, 5-carboxyfluorescein-GpYLPQTV-NH2 (phosphorylated SEQ ID NO:7) (where pY represents phospho-Tyr) as probe and Stat3. The FP assay was used to evaluate the binding of agents to Stat3 and to determine the ability to disrupt the Stat3:pTyr peptide interaction. A fixed concentration of the fluorescently-labeled peptide probe (10 nM) was incubated with increasing concentration of the Stat3 protein for 30 min at room temperature in the buffer, 50 mM NaCI, 10 mM HEPES, 1 mM EDTA, 0.1% Nonidet P-40, and the fluorescent polarization measurements were determined using the POLARstar Omega (BMG LABTECH, Durham, N.C.), with the set gain adjustment at 35 mP. The Z′ value was derived per the equation Z′=1−(3 SDbound+3 SD free)/(mPbound−mPfree), where SD is the standard deviation and mP is the average of fluorescence polarization. In the bound state, 10 nM 5-carboxyfluorescein-GpYLPQTV-NH2 (phosphorylated SEQ ID NO:7) was incubated with 150 nM purified Stat3 protein, while the free (unbound) state was the same mixture, but incubated with an additional 10 IJM unlabeled Ac-GpYLPQTV-NH2 (phosphorylated SEQ ID NO:7). For evaluating agents, Stat3 protein (150 nM) was incubated with serial concentrations of S31-201.1066 at 30° C. for 60 min in the indicated assay buffer conditions. Prior to the addition of the fluorescence probe, the protein:S31-201.1066 mixtures were allowed to equilibrate at room temperature for 15 min. Probe was added at a final concentration of 10 nM and incubated for 30 min at room temperature following which the FP measurements were taken using the POLARstar Omega, with the set gain adjustment at 35 mP.
The FP assay was used to further test the computational modeling prediction of the ability of S31-201.1066 to disrupt Stat3 interaction with its cognate pTyr peptide.

[2] = increasing concentrations, 24-144 h

Chain of Stat3 (P42227 whole entry, the tested form may be a part): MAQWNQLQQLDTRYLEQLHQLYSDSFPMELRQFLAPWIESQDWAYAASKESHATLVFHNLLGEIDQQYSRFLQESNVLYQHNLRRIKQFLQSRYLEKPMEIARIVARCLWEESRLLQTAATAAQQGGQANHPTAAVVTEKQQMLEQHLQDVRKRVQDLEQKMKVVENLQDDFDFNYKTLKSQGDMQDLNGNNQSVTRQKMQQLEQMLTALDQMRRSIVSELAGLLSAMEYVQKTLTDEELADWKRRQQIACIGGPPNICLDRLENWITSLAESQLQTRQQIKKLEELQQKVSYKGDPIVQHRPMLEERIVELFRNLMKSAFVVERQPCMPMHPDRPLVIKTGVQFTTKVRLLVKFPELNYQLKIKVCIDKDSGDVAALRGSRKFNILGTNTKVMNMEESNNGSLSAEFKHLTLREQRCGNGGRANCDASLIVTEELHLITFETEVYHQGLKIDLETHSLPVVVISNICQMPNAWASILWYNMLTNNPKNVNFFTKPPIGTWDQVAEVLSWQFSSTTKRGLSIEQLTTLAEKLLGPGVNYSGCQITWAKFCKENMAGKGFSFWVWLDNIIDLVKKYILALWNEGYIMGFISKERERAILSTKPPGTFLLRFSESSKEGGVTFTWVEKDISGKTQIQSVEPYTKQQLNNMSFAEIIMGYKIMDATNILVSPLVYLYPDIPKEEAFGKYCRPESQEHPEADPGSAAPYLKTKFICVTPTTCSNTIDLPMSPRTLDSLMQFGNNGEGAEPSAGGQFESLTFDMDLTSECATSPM
T2 sequence (P42227 2-770 limits assumed, one chain of several): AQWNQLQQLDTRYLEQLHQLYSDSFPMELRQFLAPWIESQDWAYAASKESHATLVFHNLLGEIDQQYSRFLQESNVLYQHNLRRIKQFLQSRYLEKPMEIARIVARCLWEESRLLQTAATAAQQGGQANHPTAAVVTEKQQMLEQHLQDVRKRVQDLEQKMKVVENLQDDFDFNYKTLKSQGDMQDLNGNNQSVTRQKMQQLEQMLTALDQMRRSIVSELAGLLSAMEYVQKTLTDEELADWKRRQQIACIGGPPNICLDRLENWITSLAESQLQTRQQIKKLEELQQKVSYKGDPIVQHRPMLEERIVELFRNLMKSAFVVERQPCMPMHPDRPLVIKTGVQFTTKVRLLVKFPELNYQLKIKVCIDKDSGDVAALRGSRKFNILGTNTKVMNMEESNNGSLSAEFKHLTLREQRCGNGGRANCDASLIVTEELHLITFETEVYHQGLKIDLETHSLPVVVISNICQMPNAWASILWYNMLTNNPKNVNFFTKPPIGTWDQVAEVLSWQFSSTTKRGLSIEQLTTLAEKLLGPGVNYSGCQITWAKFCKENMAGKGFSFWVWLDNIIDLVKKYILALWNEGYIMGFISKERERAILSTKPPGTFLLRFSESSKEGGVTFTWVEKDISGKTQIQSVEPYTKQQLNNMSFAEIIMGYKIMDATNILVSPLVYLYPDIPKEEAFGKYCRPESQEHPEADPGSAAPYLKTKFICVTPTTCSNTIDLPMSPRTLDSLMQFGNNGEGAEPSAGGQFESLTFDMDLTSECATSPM
T3 sequence (P42227 2-770 limits assumed, one chain of several): as above

## Cc1ccc(S(=O)(=O)N(C)CC(=O)N(Cc2ccc(C3CCCCC3)cc2)c2ccc(C(=O)O)c(O)c2)cc1 [S3I-201.1066]
Stat1:Stat1 complex; 50 μM
  inhibition of Stat1:Stat1 complex: no significant inhibition
Stat1:Stat1 complex; 100 μM
  inhibition of Stat1:Stat1 complex: moderate inhibition
Stat1:Stat1 complex; 200 μM
  inhibition of Stat1:Stat1 complex: complete inhibition
Stat1:Stat3 complex; 50 μM
  effect on Stat1:Stat3 complex: similarly repressed
Stat1:Stat3 complex; 100 μM
  effect on Stat1:Stat3 complex: completely disrupted
Stat3:Stat3 complex; 50 μM
  effect on Stat3:Stat3 complex with hSIE probe: significantly disrupted
Stat3:Stat3 complex; 100 μM
  effect on Stat3:Stat3 complex with hSIE probe: completely disrupted
[1]
  concentrations at which antitumor cell effects occurred: 30 to 50 µM
[1]; [2]
  growth (trypan blue exclusion): growth inhibited
  viable cell numbers: significantly reduced viable cell numbers
NIH3T3/v-Ras
  soft-agar growth: minimal effect
Stat3
  IC50: 45 µM and 23 µM and 20 µM
